From PubChem BioAssay (NCI)
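Five concentrations, 48 hours, 96-well plates. TGI: total growth inhibition.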

Columns and labels:
Experiment in all cases: DTP human tumour cell line panel, 48 h
786-0 renal = tested on: 786-0 renal
A498 renal = tested on: A498 renal
A549 NSCLC = tested on: A549 NSCLC
ACHN renal = tested on: ACHN renal
BT-549 breast = tested on: BT-549 breast
CAKI-1 renal = tested on: CAKI-1 renal
CCRF-CEM leukemia = tested on: CCRF-CEM leukemia
COLO 205 colon = tested on: COLO 205 colon
DU-145 prostate = tested on: DU-145 prostate
EKVX NSCLC = tested on: EKVX NSCLC
HCC-2998 colon = tested on: HCC-2998 colon
HCT-116 colon = tested on: HCT-116 colon
HCT-15 colon = tested on: HCT-15 colon
HL-60(TB) leukemia = tested on: HL-60(TB) leukemia
HOP-62 NSCLC = tested on: HOP-62 NSCLC
HS 578T breast = tested on: HS 578T breast
HT29 colon = tested on: HT29 colon
IGROV1 ovarian = tested on: IGROV1 ovarian
K-562 leukemia = tested on: K-562 leukemia
KM12 colon = tested on: KM12 colon
LOX IMVI melanoma = tested on: LOX IMVI melanoma
M14 melanoma = tested on: M14 melanoma
MALME-3M melanoma = tested on: MALME-3M melanoma
MCF7 breast = tested on: MCF7 breast
MDA-MB-231 breast = tested on: MDA-MB-231 breast
MDA-MB-435 = tested on: MDA-MB-435
MDA-N = tested on: MDA-N
MOLT-4 leukemia = tested on: MOLT-4 leukemia
NCI-H226 lung = tested on: NCI-H226 lung
NCI-H23 lung = tested on: NCI-H23 lung
NCI-H460 lung = tested on: NCI-H460 lung
NCI-H522 lung = tested on: NCI-H522 lung
NCI/ADR-RES ovarian = tested on: NCI/ADR-RES ovarian
OVCAR-3 ovarian = tested on: OVCAR-3 ovarian
OVCAR-4 ovarian = tested on: OVCAR-4 ovarian
OVCAR-5 ovarian = tested on: OVCAR-5 ovarian
OVCAR-8 ovarian = tested on: OVCAR-8 ovarian
PC-3 prostate = tested on: PC-3 prostate
RPMI-8226 leukemia = tested on: RPMI-8226 leukemia
RXF 393 renal = tested on: RXF 393 renal
SF-268 CNS = tested on: SF-268 CNS
SF-295 CNS = tested on: SF-295 CNS
SK-MEL-2 melanoma = tested on: SK-MEL-2 melanoma
SK-MEL-28 melanoma = tested on: SK-MEL-28 melanoma
SK-MEL-5 melanoma = tested on: SK-MEL-5 melanoma
SK-OV-3 ovarian = tested on: SK-OV-3 ovarian
SN12C renal = tested on: SN12C renal
SNB-19 CNS = tested on: SNB-19 CNS
SNB-75 CNS = tested on: SNB-75 CNS
SR leukemia = tested on: SR leukemia
SW-620 colon = tested on: SW-620 colon
T-47D breast = tested on: T-47D breast
U251 CNS = tested on: U251 CNS
UACC-62 melanoma = tested on: UACC-62 melanoma
UO-31 renal = tested on: UO-31 renal
HOP-92 NSCLC = tested on: HOP-92 NSCLC
SF-539 CNS = tested on: SF-539 CNS
TK-10 renal = tested on: TK-10 renal
UACC-257 melanoma = tested on: UACC-257 melanoma

SMILES: Cn1c2ccccc2n2c3ncccc3c(=NCCCC(=O)O)c(C#N)c12
- TGI (786-0 renal): > 100 µM
- TGI (A498 renal): > 100 µM
- TGI (A549 NSCLC): > 100 µM
- TGI (ACHN renal): > 100 µM
- TGI (BT-549 breast): > 100 µM
- TGI (CAKI-1 renal): > 100 µM
- TGI (CCRF-CEM leukemia): > 100 µM
- TGI (COLO 205 colon): > 100 µM
- TGI (DU-145 prostate): > 100 µM
- TGI (EKVX NSCLC): > 100 µM
- TGI (HCC-2998 colon): > 100 µM
- TGI (HCT-116 colon): > 100 µM
- TGI (HCT-15 colon): > 100 µM
- TGI (HL-60(TB) leukemia): > 100 µM
- TGI (HOP-62 NSCLC): > 100 µM
- TGI (HS 578T breast): > 100 µM
- TGI (HT29 colon): > 100 µM
- TGI (IGROV1 ovarian): > 100 µM
- TGI (K-562 leukemia): > 100 µM
- TGI (KM12 colon): > 100 µM
- TGI (LOX IMVI melanoma): > 100 µM
- TGI (M14 melanoma): > 100 µM
- TGI (MALME-3M melanoma): > 100 µM
- TGI (MCF7 breast): > 100 µM
- TGI (MDA-MB-231 breast): > 100 µM
- TGI (MDA-MB-435): > 100 µM
- TGI (MDA-N): > 100 µM
- TGI (MOLT-4 leukemia): > 100 µM
- TGI (NCI-H226 lung): > 100 µM
- TGI (NCI-H23 lung): > 100 µM
- TGI (NCI-H460 lung): > 100 µM
- TGI (NCI-H522 lung): > 100 µM
- TGI (NCI/ADR-RES ovarian): > 100 µM
- TGI (OVCAR-3 ovarian): > 100 µM
- TGI (OVCAR-4 ovarian): > 100 µM
- TGI (OVCAR-5 ovarian): > 100 µM
- TGI (OVCAR-8 ovarian): > 100 µM
- TGI (PC-3 prostate): > 100 µM
- TGI (RPMI-8226 leukemia): > 100 µM
- TGI (RXF 393 renal): > 100 µM
- TGI (SF-268 CNS): > 100 µM
- TGI (SF-295 CNS): > 100 µM
- TGI (SK-MEL-2 melanoma): > 100 µM
- TGI (SK-MEL-28 melanoma): > 100 µM
- TGI (SK-MEL-5 melanoma): > 100 µM
- TGI (SK-OV-3 ovarian): > 100 µM
- TGI (SN12C renal): > 100 µM
- TGI (SNB-19 CNS): > 100 µM
- TGI (SNB-75 CNS): > 100 µM
- TGI (SR leukemia): > 100 µM
- TGI (SW-620 colon): > 100 µM
- TGI (T-47D breast): > 100 µM
- TGI (U251 CNS): > 100 µM
- TGI (UACC-62 melanoma): > 100 µM
- TGI (UO-31 renal): > 100 µM

SMILES: Cc1ccc(S(=O)(=O)N2CCN(S(=O)(=O)c3ccc(C)cc3)CCN(S(=O)(=O)c3ccc(C)cc3)Cc3cc(C#N)c(C#N)cc3CN(S(=O)(=O)c3ccc(C)cc3)CC2)cc1
- TGI (786-0 renal): > 100 µM
- TGI (A498 renal): 58.2 µM
- TGI (A549 NSCLC): > 100 µM
- TGI (ACHN renal): > 100 µM
- TGI (BT-549 breast): > 100 µM
- TGI (CAKI-1 renal): > 100 µM
- TGI (CCRF-CEM leukemia): > 100 µM
- TGI (COLO 205 colon): > 100 µM
- TGI (DU-145 prostate): > 100 µM
- TGI (EKVX NSCLC): > 100 µM
- TGI (HCC-2998 colon): > 100 µM
- TGI (HCT-116 colon): > 100 µM
- TGI (HCT-15 colon): > 100 µM
- TGI (HL-60(TB) leukemia): > 100 µM
- TGI (HOP-62 NSCLC): > 100 µM
- TGI (HOP-92 NSCLC): 89.3 µM
- TGI (HS 578T breast): > 100 µM
- TGI (HT29 colon): > 100 µM
- TGI (IGROV1 ovarian): > 100 µM
- TGI (K-562 leukemia): > 100 µM
- TGI (KM12 colon): > 100 µM
- TGI (LOX IMVI melanoma): > 100 µM
- TGI (M14 melanoma): 89.1 µM
- TGI (MALME-3M melanoma): > 100 µM
- TGI (MCF7 breast): > 100 µM
- TGI (MDA-MB-231 breast): > 100 µM
- TGI (MDA-MB-435): > 100 µM
- TGI (MDA-N): > 100 µM
- TGI (MOLT-4 leukemia): > 100 µM
- TGI (NCI-H226 lung): > 100 µM
- TGI (NCI-H23 lung): > 100 µM
- TGI (NCI-H460 lung): > 100 µM
- TGI (NCI-H522 lung): > 100 µM
- TGI (NCI/ADR-RES ovarian): > 100 µM
- TGI (OVCAR-3 ovarian): > 100 µM
- TGI (OVCAR-4 ovarian): > 100 µM
- TGI (OVCAR-5 ovarian): > 100 µM
- TGI (OVCAR-8 ovarian): > 100 µM
- TGI (PC-3 prostate): > 100 µM
- TGI (RPMI-8226 leukemia): > 100 µM
- TGI (RXF 393 renal): > 100 µM
- TGI (SF-268 CNS): > 100 µM
- TGI (SF-295 CNS): > 100 µM
- TGI (SF-539 CNS): > 100 µM
- TGI (SK-MEL-28 melanoma): > 100 µM
- TGI (SK-MEL-5 melanoma): > 100 µM
- TGI (SK-OV-3 ovarian): > 100 µM
- TGI (SN12C renal): > 100 µM
- TGI (SNB-19 CNS): > 100 µM
- TGI (SNB-75 CNS): > 100 µM
- TGI (SR leukemia): > 100 µM
- TGI (SW-620 colon): > 100 µM
- TGI (T-47D breast): > 100 µM
- TGI (TK-10 renal): > 100 µM
- TGI (U251 CNS): > 100 µM
- TGI (UACC-257 melanoma): > 100 µM
- TGI (UACC-62 melanoma): > 100 µM
- TGI (UO-31 renal): > 100 µM
